One may read the melting point as the temperature of the solid-liquid transition. `Cc1ccc2sc3c(=O)n(C)c(=O)c=3sc2c1` gave a melting point of 171 to 176 °C.

The record behind these values is patent US9137997B2 (priority 2011, dated 2015).
